The values that follow come from patent US20200046647A1, “EXOSOME-BASED NANOPARTICLE COMPOSITE AND METHOD FOR PREPARING THE SAME” (Korea University Research and Business Foundation, Sejong …, priority 2017, published 2020).

Where a name gives a salt, the structure may show the parent alone.

This series in a line: Drug release pattern analysis (dialysis bag, phosphate-buffered saline). The class given is physicochemical. As to conditions: within 24 h; body temperature (37° C.); PBS pH 7.4; FIG. 7. As for the experimental part:
The core/shell nanoparticle composite prepared in Example 1-1 was sampled, placed in a dialysis bag (molecular weight filtration limit: 100,000), and impregnated with 30 ml of phosphate-buffered saline (PBS, pH 7.4). The amount of the sampled nanoparticle composite was determined such that 10 mg of the doxorubicin-HCl was present in the sample. The phosphate-buffered saline was stirred at 100 rpm while maintaining the temperature at 37.5° C. After the lapse of a predetermined time, 5 ml of the phosphate-buffered saline was sampled. The amount of the drug released was measured by […]. After sampling, the remaining phosphate-buffered saline was completely removed and replaced with a fresh one. The amount of the doxorubicin-HCl released was measured using a UV-Vis spectrometer (G1103A, Agilent, USA).
For comparison, each of doxorubicin-HCl (10 mg) and the liposome-based core/shell nanoparticle composite prepared in Comparative Example 1 (containing 10 mg of doxorubicin-HCl) was added to 10 mL of distilled water. The release behavior of the drug in the aqueous solution was measured by the same procedure as described above.

Regarding `COc1cccc2c1C(=O)c1c(O)c3c(c(O)c1C2=O)C[C@@](O)(C(=O)CO)C[C@@H]3O[C@H]1C[C@H](N)[C@H](O)[C@H](C)O1` [doxorubicin-HCl], the “drug released into phosphate-buffered saline” value was > 95%.
